Measurements taken from ChEMBL document CHEMBL3885861, “Open TG-GATES”.

Organism: Rattus norvegicus
Assay: Open TG-GATES - Regimen: Daily Repeat
Format: toxicity, organism-based, Sprague-Dawley
Set-up: regimen Daily Repeat, gender Male, age 6 weeks
Details: in vivo, po, 5 mg/kg, route gavage, dose level Middle; for APTT / Bas / Eos / Fbg / Hb / Ht / Lym / MCH / MCHC / MCV / Mono / Neu / PT / Plat / RBC / Ret / WBC: tissue Blood; for KIDNEY_L / KIDNEY_R / KIDNEY_TOTAL: tissue Kidney; for LIVER: tissue Liver; for ALP / ALT / AST / BUN / CRE / Ca / Cl / DBIL / GLC / IP / K / LDH / Na / PL / RALB / TBIL / TC / TG / TP / gamma-GTP: tissue Plasma

Compound O=P1(N(CCCl)CCCl)NCCCO1 (stereo not drawn) [CYCLOPHOSPHAMIDE ANHYDROUS] has a TERMINAL_BW (72 h, time 3 day) of 226.6 g, an APTT (72 h, time 3 day) of 21.9 s and a Bas (72 h, time 3 day) of 0%. The Eos (72 h, time 3 day) was 1%, the Fbg (72 h, time 3 day) was 272.4 mg/dL and the Hb (72 h, time 3 day) was 13 g/dL. It also gave a Ht (72 h, time 3 day) of 39.1%, a Lym (72 h, time 3 day) of 81.6% and an MCH (72 h, time 3 day) of 21.9 pg. It also gave an MCHC (72 h, time 3 day) of 33.2%, an MCV (72 h, time 3 day) of 65.8 fL and a Mono (72 h, time 3 day) of 2.4%. For the same compound, the Neu (72 h, time 3 day) was 14%, the PT (72 h, time 3 day) was 16.9 s and the Plat (72 h, time 3 day) was 114.8 x10_4/uL. For the same compound, the RBC (72 h, time 3 day) was 593 x10_4/ul, the Ret (72 h, time 3 day) was 6.3% and the WBC (72 h, time 3 day) was 54.2 x10_2/uL. The KIDNEY_L (72 h, time 3 day) was 1 g, the KIDNEY_R (72 h, time 3 day) was 1 g and the KIDNEY_TOTAL (72 h, time 3 day) was 2 g. The LIVER (72 h, time 3 day) was 10.7 g, the ALP (72 h, time 3 day) was 1691.2 IU/L and the ALT (72 h, time 3 day) was 40.6 IU/L. It also gave an AST (72 h, time 3 day) of 68.6 IU/L, a BUN (72 h, time 3 day) of 17 mg/dL and a CRE (72 h, time 3 day) of 0.2 mg/dL. The Ca (72 h, time 3 day) was 10.9 mg/dL, the Cl (72 h, time 3 day) was 104.6 meq/L and the DBIL (72 h, time 3 day) was 0.002 mg/dL. For the same compound, the GLC (72 h, time 3 day) was 182.8 mg/dL, the IP (72 h, time 3 day) was 8 mg/dL and the K (72 h, time 3 day) was 4.1 meq/L. The LDH (72 h, time 3 day) was 172 IU/L, the Na (72 h, time 3 day) was 141.6 meq/L and the PL (72 h, time 3 day) was 149.6 mg/dL. It also gave an RALB (72 h, time 3 day) of 3 g/dL, a TBIL (72 h, time 3 day) of 0.022 mg/dL and a TC (72 h, time 3 day) of 75.4 mg/dL. For the same compound, the TG (72 h, time 3 day) was 94.4 mg/dL, the TP (72 h, time 3 day) was 5.5 g/dL and the gamma-GTP (72 h, time 3 day) was 1 IU/L. It also gave a TERMINAL_BW ([…], time 7 day) of 245.9 g, a TERMINAL_BW ([…], time 14 day) of 288.6 g and a TERMINAL_BW ([…], time 28 day) of 359.3 g. For the same compound, the APTT ([…], time 7 day) was 22 s, the Bas ([…], time 7 day) was 0% and the Eos ([…], time 7 day) was 0.6%. It also gave a Fbg ([…], time 7 day) of 273.8 mg/dL, a Hb ([…], time 7 day) of 13.5 g/dL and a Ht ([…], time 7 day) of 40.4%. It also gave a Lym ([…], time 7 day) of 82.4%, an MCH ([…], time 7 day) of 20.9 pg and an MCHC ([…], time 7 day) of 33.4%. It also gave an MCV ([…], time 7 day) of 62.7 fL, a Mono ([…], time 7 day) of 3.2% and a Neu ([…], time 7 day) of 12.6%. For the same compound, the PT ([…], time 7 day) was 15.8 s, the Plat ([…], time 7 day) was 133.9 x10_4/uL and the RBC ([…], time 7 day) was 644.2 x10_4/ul. For the same compound, the Ret ([…], time 7 day) was 5.3%, the WBC ([…], time 7 day) was 36.4 x10_2/uL and the APTT ([…], time 14 day) was 22 s. For the same compound, the Bas ([…], time 14 day) was 0%, the Eos ([…], time 14 day) was 1.4% and the Fbg ([…], time 14 day) was 305.8 mg/dL. The Hb ([…], time 14 day) was 13.8 g/dL, the Ht ([…], time 14 day) was 40.5% and the Lym ([…], time 14 day) was 75.2%. It also gave an MCH ([…], time 14 day) of 20.4 pg, an MCHC ([…], time 14 day) of 34% and an MCV ([…], time 14 day) of 59.9 fL. For the same compound, the Mono ([…], time 14 day) was 4.6%, the Neu ([…], time 14 day) was 17.2% and the PT ([…], time 14 day) was 14.6 s. It also gave a Plat ([…], time 14 day) of 116.3 x10_4/uL, an RBC ([…], time 14 day) of 676.8 x10_4/ul and a Ret ([…], time 14 day) of 3.5%. It also gave a WBC ([…], time 14 day) of 27.7 x10_2/uL, an APTT ([…], time 28 day) of 21.7 s and a Bas ([…], time 28 day) of 0%. The Eos ([…], time 28 day) was 1.4%, the Fbg ([…], time 28 day) was 308 mg/dL and the Hb ([…], time 28 day) was 14.5 g/dL. For the same compound, the Ht ([…], time 28 day) was 42.5%, the Lym ([…], time 28 day) was 73% and the MCH ([…], time 28 day) was 19.3 pg. The MCHC ([…], time 28 day) was 34.3%, the MCV ([…], time 28 day) was 56.5 fL and the Mono ([…], time 28 day) was 3.6%. The Neu ([…], time 28 day) was 20.8%, the PT ([…], time 28 day) was 16 s and the Plat ([…], time 28 day) was 110.7 x10_4/uL. The RBC ([…], time 28 day) was 752.2 x10_4/ul, the Ret ([…], time 28 day) was 3% and the WBC ([…], time 28 day) was 35.5 x10_2/uL. The KIDNEY_L ([…], time 7 day) was 1 g, the KIDNEY_R ([…], time 7 day) was 1 g and the KIDNEY_TOTAL ([…], time 7 day) was 2 g. The KIDNEY_L ([…], time 14 day) was 1.2 g, the KIDNEY_R ([…], time 14 day) was 1.2 g and the KIDNEY_TOTAL ([…], time 14 day) was 2.3 g. It also gave a KIDNEY_L ([…], time 28 day) of 1.3 g, a KIDNEY_R ([…], time 28 day) of 1.3 g and a KIDNEY_TOTAL ([…], time 28 day) of 2.6 g. It also gave an LIVER ([…], time 7 day) of 10.8 g, an LIVER ([…], time 14 day) of 12.3 g and an LIVER ([…], time 28 day) of 14.6 g. It also gave an ALP ([…], time 7 day) of 1412.8 IU/L, an ALT ([…], time 7 day) of 38.2 IU/L and an AST ([…], time 7 day) of 65 IU/L. For the same compound, the BUN ([…], time 7 day) was 18.8 mg/dL, the CRE ([…], time 7 day) was 0.2 mg/dL and the Ca ([…], time 7 day) was 11 mg/dL. The Cl ([…], time 7 day) was 105.6 meq/L, the DBIL ([…], time 7 day) was 0 mg/dL and the GLC ([…], time 7 day) was 180.4 mg/dL. It also gave an IP ([…], time 7 day) of 6.8 mg/dL, a K ([…], time 7 day) of 3.9 meq/L and an LDH ([…], time 7 day) of 130 IU/L. For the same compound, the Na ([…], time 7 day) was 142.8 meq/L, the PL ([…], time 7 day) was 141.6 mg/dL and the RALB ([…], time 7 day) was 2.9 g/dL. For the same compound, the TBIL ([…], time 7 day) was 0.016 mg/dL, the TC ([…], time 7 day) was 74.6 mg/dL and the TG ([…], time 7 day) was 115.2 mg/dL. The TP ([…], time 7 day) was 5.5 g/dL, the gamma-GTP ([…], time 7 day) was 1.4 IU/L and the ALP ([…], time 14 day) was 1134.4 IU/L. It also gave an ALT ([…], time 14 day) of 36.6 IU/L, an AST ([…], time 14 day) of 57.2 IU/L and a BUN ([…], time 14 day) of 17.2 mg/dL. It also gave a CRE ([…], time 14 day) of 0.2 mg/dL, a Ca ([…], time 14 day) of 10.6 mg/dL and a Cl ([…], time 14 day) of 108.6 meq/L. The DBIL ([…], time 14 day) was 0 mg/dL, the GLC ([…], time 14 day) was 171 mg/dL and the IP ([…], time 14 day) was 7.1 mg/dL. It also gave a K ([…], time 14 day) of 4 meq/L, an LDH ([…], time 14 day) of 148.8 IU/L and a Na ([…], time 14 day) of 143.6 meq/L. For the same compound, the PL ([…], time 14 day) was 150.4 mg/dL, the RALB ([…], time 14 day) was 3 g/dL and the TBIL ([…], time 14 day) was 0.016 mg/dL. It also gave a TC ([…], time 14 day) of 80.4 mg/dL, a TG ([…], time 14 day) of 129.2 mg/dL and a TP ([…], time 14 day) of 5.7 g/dL. It also gave a gamma-GTP ([…], time 14 day) of 1 IU/L, an ALP ([…], time 28 day) of 973.8 IU/L and an ALT ([…], time 28 day) of 34.4 IU/L. It also gave an AST ([…], time 28 day) of 57.8 IU/L, a BUN ([…], time 28 day) of 16.8 mg/dL and a CRE ([…], time 28 day) of 0.2 mg/dL. It also gave a Ca ([…], time 28 day) of 10.5 mg/dL, a Cl ([…], time 28 day) of 106.6 meq/L and a DBIL ([…], time 28 day) of 0.002 mg/dL. For the same compound, the GLC ([…], time 28 day) was 190.2 mg/dL, the IP ([…], time 28 day) was 6.5 mg/dL and the K ([…], time 28 day) was 3.8 meq/L. It also gave an LDH ([…], time 28 day) of 133 IU/L, a Na ([…], time 28 day) of 144 meq/L and a PL ([…], time 28 day) of 135.8 mg/dL. It also gave an RALB ([…], time 28 day) of 3.1 g/dL, a TBIL ([…], time 28 day) of 0.024 mg/dL and a TC ([…], time 28 day) of 68.8 mg/dL. The TG ([…], time 28 day) was 111.6 mg/dL, the TP ([…], time 28 day) was 5.9 g/dL and the gamma-GTP ([…], time 28 day) was 1.2 IU/L.
